# According to US20120095062A1, “TRICYCLIC COMPOUNDS, COMPOSITIONS, AND METHODS” (Pfizer Inc., priority 2007, published 2012):
# Where a name gives a salt, the structure may show the parent alone. Read-outs that look alike come from different tables or passages of the source.
# Legend:
# Serum osteocalcin = Serum osteocalcin suppression, 28-day repeat dose mouse model; format: in vivo, mice; details: Mus musculus, 672 h; mice, oral gavage 28 days, serum osteocalcin
# IFNγ = test: Ex vivo LPS-stimulated human whole blood, IFNγ production; format: cell-based; details: mean
# Protocol: (§1) Venous blood from human donors was collected as 10 ml aliquots in tubes containing sodium heparin (BD Vacutainer from Becton Dickinson and Company, Franklin Lakes, N.Y.). Blood was added to sterile polystyrene round bottom 96-well tissue culture plates (Corning Costar) at 100 μl/well, omitting the outside wells. Media (RPMI Medium 1640 with L-glutamine, Invitrogen Corporation, Carlsbad, Calif.) was added to the blood in 90 μl aliquots for a total volume of 190 μl. Outside wells were filled with 200 μl of media. Blood was placed in a humidified 37° C. incubator with 5% CO2 while compounds were prepared (nearly 60 minutes).
# (§2) Compounds were prepared from 10 mM stock solutions in dimethylsulfoxide (DMSO, Sigma-Aldrich). […] Final DMSO and ethanol concentrations in the assay were 0.1% and 1.5%. The samples were gently triturated twice to mix and replaced in the incubator. LPS stock (E. coli serotype 0111:84, Sigma-Aldrich), stored in aliquots of 100 μg/ml in RPMI at −20° C., was diluted 1/50 in RPMI to make a working stock solution. After 60 minutes of incubation, 10 μl of the prepared LPS working stock was added to the blood to a final concentration of 100 ng/ml, omitting wells to be used as negative control. The samples were again gently triturated and the plates incubated overnight for 22 hours. Following incubation, the blood was centrifuged at 1500×g for 5 minutes and the plasma removed to either freeze at −20° C. or assay for cytokine release.
# (§3) IL-1β, IFNγ,IL-6, and TNFα protein levels were measured using Meso Scale assay kits (Meso Scale Discovery, Gaithersburg, Md.). Reagents were allowed to come to room temperature. Meso Scale plates were blocked with […] of human plasma/serum assay diluent with gentle shaking for 60 minutes at room temperature. Plates were washed 3× with wash buffer (PBS, Invitrogen Corporation, with 0.05% Tween-20, Sigma-Aldrich). Calibrators for standard curves were prepared in human plasma/serum assay diluent as a 1/5 serial dilution to achieve final concentrations ranging from 50000 pg/ml to 3.2 pg/ml. Samples and calibrators were added at 20 μl/well, then incubated at room temperature with gentle shaking for 90 minutes. Plates were again washed 3 times with wash buffer. Detection antibody was diluted in human plasma/serum antibody diluent to 1 μg/ml and added to the plate at 20 μl/well. Plates were incubated as before for 60 minutes and washed again. Read Buffer T (4×) was diluted 1:1 with mqH2O to 2 times concentration and 150 μl added to each well. Plates were analyzed on the SECTOR Imager 6000 (Meso Scale Discovery) to generate raw signal values.
# (§4) IL-1β, IFNγ, IL-6, and TNFα sample values were verified to be within the calibrator standard curves. Individual values were compared to positive and negative controls (vehicle treated blood with LPS and vehicle treated blood without LPS, respectively) to generate % inhibition. Triplicate values were averaged for each donor. The values for two donors were averaged (only one donor was used for IL-1β) and graphed using 4-parameter fit curves in the GraFit 5.0.11 application.
# TNFα, U937 cells = test: TNFα inhibition in LPS-stimulated differentiated U937 cells; format: cell-based; design: inhibition: dose or concentration left out as unconfirmed; details: Homo sapiens
# Protocol: Cells were differentiated to a monocyte/macrophage phenotype with phorbol 12-myristate 13-acetate (Sigma-Aldrich, St. Louis, Mo.), 20 ng/mL, overnight. […] Following recovery, the cells were scraped, counted, and plated in accordance to the experimental design prior to stimulation with LPS, as described below. U937 cells were differentiated and plated at a density of 200,000 cells/well in 96-well plates. […] Louis, Mo.) for four hours at 37° C. and with 5% CO2. Cell supernatants were collected for determination of TNFα levels using an in-house sandwich-type ELISA. Mouse anti-human TNFα monoclonal antibody (clone 28401.111) and biotinylated goat anti-human TNFα (R&D Systems, Minneapolis, Minn.) were used as the capture and detection antibodies, respectively. Streptavidin-horseradish peroxidase (HRP) (R&D Systems, Minneapolis, Minn.) and K-Blue Substrate/Red Stop (Neogen, Lexington, Ky.) were used as the detection system. Absorbance was measured at 650 nm. TNFα concentrations were interpolated from a human TNFα recombinant protein (R&D Systems, Minneapolis, Minn.) standard curve using a four parameter logistics model by Magellan 4.11 data analysis software (Tecan, Durham, N.C.). […] Vehicle was used to define the 0% inhibition control. Percent inhibition for each concentration of compound, relative to these controls, was calculated using Excel (Microsoft, Redmond, Wash.).
# [1] = test system: IL-6, Human A549 lung epithelial cells; test: IL-6 inhibition in IL-1β-stimulated A549 cells; format: cell-based; details: for IC50: A549, 20 h, A549 cells, 1 ng/mL IL-1β, 20 hours, read-out: IL-6 IC50; for inhibition: A549, A549 cells, Prednisolone (1 μM) = 100% inhibition control
# Protocol: Human A549 lung epithelial cells (American Type Culture Collection, Rockville, Md.) were cultured in Kaighn's F-12K medium with penicillin-streptomycin (10 U/mL) and 10% heat-inactivated fetal bovine serum (all from Invitrogen, Grand Island, N.Y.). A549 cells were plated at a density of 30,000 cells/well in 96-well plates and incubated overnight at 37° C. and with 5% CO2. The cells were serum-starved by replacing the growth medium with serum-free Kaighn's F-12K medium with penicillin-streptomycin (10 U/mL) and, again, incubating overnight at 37° C. and with 5% CO2. On the third day, the medium was replaced with fresh serum-free medium and the cells were incubated with or without compound (vehicle was DMSO at 0.1% maximum concentration) for approximately 1 hour and then stimulated with 1 ng/mL recombinant human IL-1β (R&D Systems, Minneapolis, Minn.) for 20 hours at 37° C. and with 5% CO2. Cell supernatants were collected for determination of IL-6 levels using MSD (Meso Scale Discovery, Gaithersburg, Md.) 96-well Single Spot plates as per the manufacturer's instructions. Plates were read with an MSD Sector Imager 6000. […] Vehicle was used to define the 0% inhibition control. Percent inhibition for each compound concentration, relative to these controls, was calculated using Excel (Microsoft, Redmond, Wash.). IC50 values were generated using GraFit 5.0 data analysis software (Erithacus Software Ltd., Surrey, UK).
# IL-6 = test: Ex vivo LPS-stimulated human whole blood, IL-6 production; format: cell-based; details: mean
# Protocol: as §1, §2, §3, §4
# TNFα = test: Ex vivo LPS-stimulated human whole blood, TNFα production; format: cell-based; details: mean
# Protocol: as §1, §2, §3
# as §4, with “Individual” for “IL-1β, IFNγ, IL-6, and TNFα sample values were verified to be within the calibrator standard curves. Individual”
# LPS-induced serum TNFα = LPS-induced serum TNFα suppression, 28-day repeat dose mouse model; format: in vivo; details: 672 h, mice, oral gavage 28 days
# IL-1β = test: Ex vivo LPS-stimulated human whole blood, IL-1β production; format: cell-based; details: one donor
# Protocol: as §1, §2, §3, §4
# [2] = test system: Mouse Collagen-induced arthritis; test: Therapeutic mouse collagen-induced arthritis (mCIA) model; format: in vivo; details: mice, dosing day 34 through day 49, read-out: Therapeutic mCIA (ED50 dose)
# Excerpt: Mouse Collagen-induced arthritis is a commonly used chronic, preclinical model of rheumatoid arthritis in which joint swelling and bone destruction occur following immunization with type II collagen. Reduction of disease incidence and severity has been shown previously to be predictive of disease-modification and signs and symptoms mitigation, respectively, in a clinical setting.
# In the therapeutic mCIA model, induction of disease incidence and severity was synchronized via LPS stimulation. Male […] mice were immunized with 100 ug of bovine type II collagen (bCII) on day 0. All mice received an intraperitoneal injection of 20 μg of LPS on day 28 and disease was allowed to develop through day 34. At day 34, all mice had disease (incidence=100%) with an average severity score of seven. Dosing of compounds was initiated in the therapeutic mode on day 34 and continued through day 49. Different treatments were compared by measuring the decrease in incidence (i.e., resolution of disease) and the decrease in severity of paw swelling over time.
# [3] = U-937, 4 h, U937 cells, 100 ng/mL LPS, four hours, read-out: TNFα IC50
structure (smiles),measurement,setting,value
"Cc1ncccc1CNC(=O)c1ccc2c(c1)CC[C@@H]1C[C@@](O)(CCC(F)(F)F)CC[C@@]21Cc1ccccc1 [Comparator A, (4βS,7S,8αR)-4β-benzyl-7-hydroxy-N-((2-methylpyridin-3-yl)methyl)-7-(3,3,3-trifluoropropyl)-4β,5,6,7,8,8α,9,10-octahydrophenanthrene-2-carboxamide]",ED50,Serum osteocalcin,37 mg/kg
same,inhibition at 0.00137174 µM,IFNγ; 1.371742 nM,18.1%
same,inhibition at 0.00411523 µM,IFNγ; 4.115226 nM,-1.7%
same,inhibition at 0.0123457 µM,IFNγ; 12.34568 nM,0.016%
same,inhibition at 0.037037 µM,IFNγ; 37.03704 nM,-9.81%
same,inhibition at 0.111111 µM,IFNγ; 111.1111 nM,8.74%
same,inhibition at 0.333333 µM,IFNγ; 333.3333 nM,-6.32%
same,inhibition at 1 µM,IFNγ; 1000 nM,16.5%
same,inhibition at 3 µM,IFNγ; 3000 nM,28%
same,inhibition,"TNFα, U937 cells; U-937",35%
same,IC50,"TNFα, U937 cells; [3]",> 1000 nM
same,IC50,[1],> 36.4 nM
same,inhibition,[1],59.9%
same,inhibition at 0.00137174 µM,IL-6; 1.371742 nM,1.46%
same,inhibition at 0.00411523 µM,IL-6; 4.115226 nM,-4.34%
same,inhibition at 0.0123457 µM,IL-6; 12.34568 nM,-1.13%
same,inhibition at 0.037037 µM,IL-6; 37.03704 nM,-3.52%
same,inhibition at 0.111111 µM,IL-6; 111.1111 nM,-3.5%
same,inhibition at 0.333333 µM,IL-6; 333.3333 nM,-2.83%
same,inhibition at 1 µM,IL-6; 1000 nM,-0.89%
same,inhibition at 3 µM,IL-6; 3000 nM,-1.97%
same,inhibition at 0.00137174 µM,TNFα; 1.371742 nM,18.1%
same,inhibition at 0.00411523 µM,TNFα; 4.115226 nM,-0.861%
same,inhibition at 0.0123457 µM,TNFα; 12.34568 nM,0.0309%
same,inhibition at 0.037037 µM,TNFα; 37.03704 nM,-4.19%
same,inhibition at 0.111111 µM,TNFα; 111.1111 nM,-3.82%
same,inhibition at 0.333333 µM,TNFα; 333.3333 nM,-4.61%
same,inhibition at 1 µM,TNFα; 1000 nM,-5.44%
same,inhibition at 3 µM,TNFα; 3000 nM,-3.04%
same,ED50,LPS-induced serum TNFα,60 mg/kg
same,inhibition at 0.00137174 µM,IL-1β; 1.371742 nM,32%
same,inhibition at 0.00411523 µM,IL-1β; 4.115226 nM,22%
same,inhibition at 0.0123457 µM,IL-1β; 12.34568 nM,22.8%
same,inhibition at 0.037037 µM,IL-1β; 37.03704 nM,17.3%
same,inhibition at 0.111111 µM,IL-1β; 111.1111 nM,8.6%
same,inhibition at 0.333333 µM,IL-1β; 333.3333 nM,12.2%
same,inhibition at 1 µM,IL-1β; 1000 nM,15%
same,inhibition at 3 µM,IL-1β; 3000 nM,16.4%
"Cc1cnc(NC(=O)c2ccc3c(c2)CC[C@@H]2C[C@@](O)(C(F)(F)F)CC[C@@]32Cc2ccccc2)c(C)n1 [Comparator B, (4βS,7R,8αR)-4β-benzyl-N-(3,5-dimethylpyrazin-2-yl)-7-hydroxy-7-(trifluoromethyl)-4β,5,6,7,8,8α,9,10-octahydrophenanthrene-2-carboxamide]",ED50,Serum osteocalcin,2.39 mg/kg
same,IC50,[1],4 nM
same,inhibition,[1],75.8%
same,ED50,[2],2.9 mg/kg
same,ED50,LPS-induced serum TNFα,1.64 mg/kg
"Cc1ccncc1NC(=O)c1ccc2c(c1)CC[C@@H]1C[C@@](O)(C(F)(F)F)CC[C@@]21Cc1ccccc1 [Comparator D, (4βS,7R,8αR)-4β-benzyl-7-hydroxy-N-(4-methylpyridin-3-yl)-7-(trifluoromethyl)-4β,5,6,7,8,8α,9,10-octahydrophenanthrene-2-carboxamide]",ED50,Serum osteocalcin,1.18 mg/kg
same,IC50,[1],1.3 nM
same,inhibition,[1],79.8%
same,ED50,LPS-induced serum TNFα,1.47 mg/kg
Cc1c(NC(=O)c2ccc3c(c2)CC[C@@H]2C[C@@](O)(C(F)(F)F)CC[C@@]32Cc2ccccc2)ccc[n+]1[O-] [Comparator G],ED50,Serum osteocalcin,1.12 mg/kg
same,IC50,[1],2.1 nM
same,inhibition,[1],80.1%
same,ED50,LPS-induced serum TNFα,2.9 mg/kg
"Cc1ncccc1NC(=O)c1ccc2c(c1)CC[C@@H]1C[C@@](O)(C(F)F)CC[C@@]21Cc1ccccc1 [Comparator H, (4βS,7R,8αR)-4β-benzyl-7-(difluoromethyl)-7-hydroxy-N-(2-methylpyridin-3-yl)-4β,5,6,7,8,8α,9,10-octahydrophenanthrene-2-carboxamide]",ED50,Serum osteocalcin,0.51 mg/kg
same,IC50,[1],4.3 nM
same,inhibition,[1],64.9%
same,ED50,LPS-induced serum TNFα,0.23 mg/kg
"Cc1ncccc1NC(=O)c1ccc2c(c1)CC[C@@H]1C[C@@](O)(C(F)(F)F)CC[C@@]21Cc1ccccc1 [Example 1 HCL salt, (4βS,7R,8αR)-4β-benzyl-7-hydroxy-N-(2-methylpyridin-3-yl)-7-(trifluoromethyl)-4β,5,6,7,8,8α,9,10-octahydrophenanthrene-2-carboxamide]",inhibition,"TNFα, U937 cells; U-937",77.1%
same,IC50,"TNFα, U937 cells; [3]",92.1 nM
same,IC50,"TNFα, U937 cells; U-937, value in brackets, footnote a: additional results that were found, read-out: TNFα IC50 (nM), additional result",28.8 nM
same,IC50,[1],0.4 nM
same,inhibition,[1],76.9%
"Cc1ncccc1NC(=O)c1ccc2c(c1)CC[C@@H]1C[C@@](OP(=O)(O)O)(C(F)(F)F)CC[C@@]21Cc1ccccc1 [Example 2, (2R,4αS,10αR)-4α-benzyl-7-((2-methylpyridin-3-yl)carbamoyl)-2-(trifluoromethyl)-1,2,3,4,4α,9,10α-octahydrophenanthren-2-yl dihydrogen phosphate]",IC50,[1],60 nM
